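Protocol summary: plate cells (96-well), add compound at 5 concentrations, incubate 48 h, interpolate endpoints linearly. Here, GI50 denotes the concentration required for 50% inhibition of growth.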 Activity calls are given as the source filed them. Rule as the data show it: active = GI50 up to about 1.1 µM and inactive = higher.
Experiments:
Test in all cases: inhibition of tumour cell growth, NCI panel, 48 h
[1] = system: MOLT-4
[2] = system: CAKI-1
[3] = system: U-251
[4] = system: SNB-75
[5] = system: RXF 393
[6] = system: HCT-15
[7] = system: IGROV-1
[8] = system: SK-MEL-5
[9] = system: SF-295
[10] = system: ACHN
[11] = system: KM12
[12] = system: HT-29
[13] = system: MCF7
[14] = system: NCI/ADR-RES
[15] = system: UACC-257
[16] = system: SF-539
[17] = system: OVCAR-3
[18] = system: Malme-3M
[19] = system: TK-10
[20] = system: MDA-N

SMILES | GI50 [1] | GI50 [2] | GI50 [3] | GI50 [4] | GI50 [5] | GI50 [6] [µM] | GI50 [7] | GI50 [8] | GI50 [9] | GI50 [10] | GI50 [11] | GI50 [12] | GI50 [13] | GI50 [14] | GI50 [15] | GI50 [16] | GI50 [17] | GI50 [18] | GI50 [19] | GI50 [20]
Cn1nc2ccc([N+](=O)[O-])c(Cn3nnc4ccccc43)c2n1 | > 100 µM (inactive) | > 100 µM (inactive) | > 100 µM (inactive) | 70.3 µM (inactive) | > 100 µM (inactive) | > 100 | > 100 µM (inactive) | 79.4 µM (inactive) | > 100 µM (inactive) | > 100 µM (inactive) | 76.7 µM (inactive) | > 100 µM (inactive) | > 100 µM (inactive) | 71 µM (inactive) | > 100 µM (inactive) | > 100 µM (inactive) | > 100 µM (inactive) | > 100 µM (inactive) | > 100 µM (inactive) | 88.3 µM (inactive)
CC(NC1=NCCO1)c1cccc([N+](=O)[O-])c1 (stereo not given) | 88.7 µM (inactive) | > 100 µM (inactive) | > 100 µM (inactive) | > 100 µM (inactive) | > 100 µM (inactive) | > 100 | > 100 µM (inactive) | > 100 µM (inactive) | > 100 µM (inactive) | > 100 µM (inactive) | > 100 µM (inactive) | > 100 µM (inactive) | > 100 µM (inactive) | > 100 µM (inactive) | > 100 µM (inactive) | > 100 µM (inactive) | > 100 µM (inactive) | > 100 µM (inactive) | > 100 µM (inactive) | > 100 µM (inactive)
COC(=O)C(C(=O)C(=O)Nc1ccccc1C#N)c1nc2ccc([N+](=O)[O-])cc2nc1O (stereo not given) | > 100 µM (inactive) | > 100 µM (inactive) | > 100 µM (inactive) | > 100 µM (inactive) | > 100 µM (inactive) | > 100 | 94.4 µM (inactive) | > 100 µM (inactive) | > 100 µM (inactive) | > 100 µM (inactive) | 37.8 µM (inactive) | > 100 µM (inactive) | > 100 µM (inactive) | 92.5 µM (inactive) | > 100 µM (inactive) | 44.5 µM (inactive) | > 100 µM (inactive) | > 100 µM (inactive) | > 100 µM (inactive) | > 100 µM (inactive)
CCOCC(=O)N[C@H]1CCc2cc(OC)c(OC)c(OC)c2-c2ccc(OC)c(=O)cc21 | 0.0231 µM (active) | 0.0577 µM (active) | 0.0173 µM (active) | < 0.0191 µM (active) | 0.0811 µM (active) | 0.0865 | 0.0241 µM (active) | 0.0133 µM (active) | 0.0206 µM (active) | 0.0962 µM (active) | 0.0129 µM (active) | 0.0146 µM (active) | 0.0207 µM (active) | 0.982 µM (active) | 0.0377 µM (active) | 0.0148 µM (active) | 0.0148 µM (active) | 0.0229 µM (active) | 2.46 µM (inactive) | 0.0122 µM (active)
COC(=O)c1ccccc1NC(=O)C(=O)CC(=O)c1ccccc1NC1=CC(=O)C(=O)c2ccccc21 | 3.98 µM (inactive) | 23.8 µM (inactive) | 11.1 µM (inactive) | 17.5 µM (inactive) | 15.6 µM (inactive) | 5.65 | 13.2 µM (inactive) | 5.13 µM (inactive) | 15.6 µM (inactive) | 14.5 µM (inactive) | 15.2 µM (inactive) | 44.5 µM (inactive) | 8.87 µM (inactive) | 2.33 µM (inactive) | 6.05 µM (inactive) | 18.6 µM (inactive) | 1.78 µM (inactive) | 3.02 µM (inactive) | 67.6 µM (inactive) | 1.71 µM (inactive)
